Test results: ChEMBL document CHEMBL2401727, “Searching for new antiarrhythmic agents: evaluation of meta-hydroxymexiletine enantiomers” (Eur J Med Chem, 2013)

Key:
Ileum [1] = assay: Relaxtant activity in guinea pig K+-depolarized ileum longitudinal smooth muscle assessed as inhibition of calcium-induced contraction at 10^-4 M relative to control; format: functional; conditions: Cavia porcellus
Aorta [2] = assay: Vasorelaxant activity in guinea pig K+-depolarized aortic strip assessed as inhibition of calcium-induced contraction at 5 X 10^-5 M relative to control; format: functional; conditions: Cavia porcellus
[3] = Negative chronotropic activity in guinea pig spontaneously beating right atria assessed as decrease in atrial rate at 10^-5 M relative to control; format: functional, Cavia porcellus, Cardiac atrium; set-up: scale not given: the % may be the effect or the level left
Left cardiac atrium [4] = assay: Negative inotropic activity in guinea pig left atria assessed as decrease of 1 Hz current-induced developed tension; format: functional; conditions: Cavia porcellus
Left cardiac atrium [5] = assay: Negative inotropic activity in guinea pig left atria assessed as decrease of 1 Hz current-induced developed tension at 10^-6 M relative to control; format: functional, Cavia porcellus; set-up: scale not given: the % may be the effect or the level left
Heart [6] = assay: Antiarrhythmic activity in guinea pig left atria assessed as increase of threshold of 1 Hz alternating current-induced arrhythmia at 10^-6 M measured every 30 mins relative to control; format: functional, Cavia porcellus
Heart [7] = assay: Antiarrhythmic activity in guinea pig left atria assessed as increase of threshold of 1 Hz alternating current-induced arrhythmia at 1 Hz measured every 30 mins; format: functional, tissue-based; conditions: Cavia porcellus, 0.5 h
Ileum [8] = assay: Relaxtant activity in guinea pig K+-depolarized ileum longitudinal smooth muscle assessed as inhibition of calcium-induced contraction; format: functional, tissue-based; conditions: Cavia porcellus
Aorta [9] = assay: Vasorelaxant activity in guinea pig K+-depolarized aortic strip assessed as inhibition of calcium-induced contraction at 10^-4 M relative to control; format: functional; conditions: Cavia porcellus
Left cardiac atrium [10] = assay: Negative inotropic activity in guinea pig left atria assessed as decrease of 1 Hz current-induced developed tension at 5 X 10^-5 M relative to control; format: functional, Cavia porcellus; set-up: scale not given: the % may be the effect or the level left
Heart [11] = assay: Antiarrhythmic activity in guinea pig left atria assessed as increase of threshold of 1 Hz alternating current-induced arrhythmia at 10^-4 M measured every 30 mins relative to control; format: functional, Cavia porcellus
[12] = Elimination half life in human; conditions: in vivo

EC50 (Left cardiac atrium [4]) [µM] | IC50 (Ileum [8]) [µM] | half-life [12] [h] | SMILES | inhibition at 100 µM (Ileum [1]) [%] | inhibition at 50 µM (Aorta [2]) [%] | Activity [3] [%] | Activity (Left cardiac atrium [5]) [%] | %max (Heart [6]) [%] | EC50 (Heart [7]) [µM] | inhibition at 100 µM (Aorta [9]) [%] | Activity (Left cardiac atrium [10]) [%] | %max (Heart [11]) [%]
0.025 |  |  | Cc1ccc(O)c(C)c1OC[C@@H](C)N | 47 | 1 | 34 | 89 | 66 | 0.56 |  |  | 
0.12 | 13.6 |  | Cc1ccc(O)c(C)c1OC[C@H](C)N | 75 |  | 16 |  |  |  | 4 | 93 | 13
 | 25.8 |  | Cc1ccc(O)c(C)c1OCC(C)N (racemic) | 51 |  |  |  |  |  |  |  | 
 | 8.52 | 10 | Cc1cccc(C)c1OCC(C)N (centres undefined) [MEXILETINE] | 81 |  |  |  |  |  |  |  | 
